Assay [1] has as its target KlMis12c^Mtw1c with phosphomimetic mutations of Dsn1^AI. As to conditions: fluorescence polarization; K. lactis complex with phosphomimetic mutations (Asp mutants of S213/S223); ref Dimitrova et al., 2016; cited from earlier work. The text has this: We further investigated the effect of Dsn1^AI on the interaction between K^HB-RWDM (which has wild-type unphosphorylated Dsn1^AI) and a peptide modeled on the N-terminal 38 residues of CENP-C^Mif2 (CENP-C^Mif2_1–38). […] Also similar to Dimitrova et al. (2016), using ITC we found no binding of CENP-UAme1_1-33 to the unphosphorylated KM. […] We cannot accoun ... || (+ 2 further places)
On the technique in general: Fluorescence polarisation rises when a labelled molecule tumbles more slowly, as on binding a larger partner.

The subject of assay [2] is KlMis12c^Mtw1c containing an intact Dsn1^AI. Particulars: lower concentrations (50 nM) for CENP-U^Ame1, unphosphorylated complex, ref Dimitrova et al., 2016; cited from earlier work.
The test system of assay [3] is T1, K^HB-RWDM^Dsn1Δ257 (Knl1c:Mis12c^Mtw1c complex, Knl1^Spc105 residues 1–444 and Dsn1 residues 1–257 deleted).
T1 construct: made in house; host or cells: High-5 insect cells (baculovirus)
T1 sequence (P47149 whole entry, stated change not applied, the tested form may be a part): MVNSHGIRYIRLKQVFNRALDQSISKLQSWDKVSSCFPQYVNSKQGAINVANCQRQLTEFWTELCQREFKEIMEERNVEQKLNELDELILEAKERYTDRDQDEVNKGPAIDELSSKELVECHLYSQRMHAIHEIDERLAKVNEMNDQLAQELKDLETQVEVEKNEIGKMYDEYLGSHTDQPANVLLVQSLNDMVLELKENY
T1 sequence (P39731 whole entry, stated change not applied, further chain, the tested form may be a part): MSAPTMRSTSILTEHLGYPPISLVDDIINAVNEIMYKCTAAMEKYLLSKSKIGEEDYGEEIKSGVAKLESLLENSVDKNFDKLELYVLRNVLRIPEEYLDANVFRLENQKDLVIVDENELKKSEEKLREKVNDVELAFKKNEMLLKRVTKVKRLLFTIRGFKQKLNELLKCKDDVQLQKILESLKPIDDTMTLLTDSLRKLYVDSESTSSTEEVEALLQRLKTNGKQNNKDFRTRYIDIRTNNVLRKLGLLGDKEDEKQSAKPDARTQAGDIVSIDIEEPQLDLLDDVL
T1 sequence (P40568 258-576, stated change not applied, further chain): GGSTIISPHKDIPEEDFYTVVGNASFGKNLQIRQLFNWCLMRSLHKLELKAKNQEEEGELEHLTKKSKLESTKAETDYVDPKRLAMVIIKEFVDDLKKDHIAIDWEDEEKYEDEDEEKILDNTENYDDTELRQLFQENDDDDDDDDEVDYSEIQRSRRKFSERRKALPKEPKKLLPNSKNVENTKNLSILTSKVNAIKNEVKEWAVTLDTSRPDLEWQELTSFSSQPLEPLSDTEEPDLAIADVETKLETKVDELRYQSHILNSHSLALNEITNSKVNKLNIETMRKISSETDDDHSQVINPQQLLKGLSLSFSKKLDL
T1 sequence (Q04431 whole entry, stated change not applied, further chain, the tested form may be a part): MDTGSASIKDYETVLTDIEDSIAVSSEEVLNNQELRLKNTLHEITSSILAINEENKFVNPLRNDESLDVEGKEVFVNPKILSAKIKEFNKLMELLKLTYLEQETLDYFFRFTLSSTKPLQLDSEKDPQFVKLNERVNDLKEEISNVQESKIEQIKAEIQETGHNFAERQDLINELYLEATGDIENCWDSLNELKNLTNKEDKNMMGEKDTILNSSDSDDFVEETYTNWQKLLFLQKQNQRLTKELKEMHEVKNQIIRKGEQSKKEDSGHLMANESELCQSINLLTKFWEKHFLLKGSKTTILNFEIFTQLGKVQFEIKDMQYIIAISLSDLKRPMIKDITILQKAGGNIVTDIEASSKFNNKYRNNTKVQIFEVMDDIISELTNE
T1 sequence (Q12143 whole entry, stated change not applied, further chain, the tested form may be a part): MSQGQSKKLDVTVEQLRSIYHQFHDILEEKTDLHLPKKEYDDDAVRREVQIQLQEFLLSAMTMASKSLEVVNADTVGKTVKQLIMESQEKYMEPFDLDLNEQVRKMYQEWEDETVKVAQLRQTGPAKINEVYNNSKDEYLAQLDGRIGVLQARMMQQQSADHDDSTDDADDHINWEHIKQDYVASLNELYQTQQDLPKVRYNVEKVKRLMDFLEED
T1 sequence (P53148 445-917, stated change not applied, further chain): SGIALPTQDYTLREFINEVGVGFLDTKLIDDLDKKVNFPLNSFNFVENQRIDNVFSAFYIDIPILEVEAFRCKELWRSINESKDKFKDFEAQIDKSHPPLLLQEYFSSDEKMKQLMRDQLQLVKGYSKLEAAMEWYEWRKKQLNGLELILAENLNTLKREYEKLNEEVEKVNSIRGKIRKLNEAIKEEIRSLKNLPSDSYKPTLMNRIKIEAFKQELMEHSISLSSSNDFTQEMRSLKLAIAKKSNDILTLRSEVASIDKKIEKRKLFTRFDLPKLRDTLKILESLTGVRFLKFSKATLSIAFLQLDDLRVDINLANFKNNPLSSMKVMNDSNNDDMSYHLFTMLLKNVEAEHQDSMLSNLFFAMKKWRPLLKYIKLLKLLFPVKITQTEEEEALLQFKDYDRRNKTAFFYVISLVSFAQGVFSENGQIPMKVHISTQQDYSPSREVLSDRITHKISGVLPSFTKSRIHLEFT
The experiment in a line: ITC, Dsn1 peptide titrated into K^HB-RWDM^Dsn1Δ257. In kind it is binding, S. cerevisiae. The method, then:
(§1) Dsn1^228–254 and Dsn1^228–254,S240E,S250E peptides were synthesized by Alta BioScience with N-terminal acetylation and C-terminal GSAW extension and amidation. The final sequence of Dsn1^228–254 was […], and Dsn1^228–254,S240E,S250E was […]. All protein complexes and peptides used in a given experiment were dialyzed for a minimum of 16 h and/or buffer-exchanged by size-exclusion chromatography into the same batch of ITC buffer (25 mM HEPES, pH 7.5, 100 mM NaCl, 1 mM TCEP). All experiments were performed using an Auto-iTC200 instrument (Malvern Instruments) at 25°C. In each experiment, 360 μl of protein complex was pipetted into the calorimeter cell. The protein complex loaded into the calorimeter cell contained Knl1c:Mis12c^Mtw1c with Knl1^Spc105_HB-RWD and Dsn1^Δ1–257 and either wild-type Mis12^Mtw1 (K^HB-RWDM ^Dsn1Δ257) or Mis12^Mtw1_E69A,E73A,E77A mutant (K^HB-RWDM ^Dsn1Δ257_Mis12-3A). Wild-type constructs of all other Knl1c and Mis12c^Mtw1c subunits were included. Titration of either the Dsn1^228–254 or Dsn1^228-254,S240E,S250E peptide into the cell was then performed by an initial injection of 0.5 μl, followed by 19 further injections of 2.0 μl each. […] Titrations were performed in duplicate or triplicate, and reported KD and n values were calculated as an average from all replicate results.
(In general: In ITC the heat of successive injections is recorded.)

Assay [4] has as its system K^HB-RWDM^Dsn1Δ257_Δhead1. Briefly: ITC, Dsn1 peptide titrated into head 1-deleted complex. In kind it is binding, S. cerevisiae. Particulars: 25°C, 25 mM HEPES pH 7.5, 100 mM NaCl, 1 mM TCEP, syringe 0.3 mM, cell 0.025 mM, two experiments.
Assay [5] relates to K^HB-RWDM^Dsn1Δ257_Mis12-3A. The experiment in a line: ITC, Dsn1 peptide titrated into Mis12-3A mutant complex. In kind it is binding, S. cerevisiae. Particulars: ratio of ITC KD values, Mis12-3A mutant complex versus K^HB-RWDM^Dsn1Δ257. The procedure:
as §1

The target in assay [6] is Knl1c:Mis12c^Mtw1c complex K^HB-RWDM^2E (full-length Dsn1 with S240E and S250E phosphomimetic mutations), P53148;Q04431;P40568;P39731;P47149;Q12143. Briefly: ITC. Particulars: Syringe: CENP-U^Ame1_1-33-Mut (0.32 mM); Cell: K^HB-RWDM^2E (0.016 mM); parent: 1.35 ± 0.08.
Assay [7] concerns the target Knl1c:Mis12c^Mtw1c complex K^HB-RWDM^Dsn1Δ257_Mis12-3A (K^HB-RWDM^Dsn1Δ257 containing mutant … (S. cerevisiae, UniProt P53148 445-917)); Q04431 1-385; P40568 258-576; P39731 1-289; P47149 1-201; …, E69A | E73A | E77A (construct name; the text of the results says Asp77)). Briefly: ITC.
For assay [8], the target named is T2, Knl1c:Mis12c^Mtw1c complex K^HB-RWDM^Dsn1Δ257 (Knl1^Spc105 residues 1–444 and Dsn1 residues 1–257 deleted) (S. cerevisiae, UniProt P53148 445-917; Q04431 1-385; P40568 258-576; P39731 1-289; P47149 1-201; …).
T2 construct: Knl1^Spc105_HB-RWD: Knl1^Spc105, S. cerevisiae S288c, residues 445-917; ZWINT^Kre28, S. cerevisiae S288c; no truncation stated; Mis12^Mtw1, S. cerevisiae S288c; wild-type, no truncation stated; Nnf1, S. cerevisiae S288c; Nsl1, S. cerevisiae S288c; source: High-5 insect cells (two baculoviruses), purified (Strep-Tactin, SEC); copies: + + + + +
The experiment in a line: SEC; 4 μM Knl1c:Mis12c^Mtw1c complex mixed with 4 μM CENP-C^Mif2_1-63 or CENP-QU in KMN buffer, 30 min on ice; Superose 6 3.2/300 in 20 mM HEPES pH 7.5, 150 mM NaCl, 1 mM TCEP; fractions on SDS-PAGE. As to conditions: both partners purified. For orientation: Size exclusion chromatography separates by hydrodynamic size, large species first.

Assay [9] addresses T3, Knl1c:Mis12c^Mtw1c complex K^HB-RWDM^Dsn1Δ226-2E (Dsn1 residues 1–226 deleted, with S240E and S250E … (S. cerevisiae, UniProt P53148 445-917; Q04431 1-385; P40568 227-576; P39731 1-289; P47149 1-201; …, S240E | S250E).
T3 construct: Knl1^Spc105_HB-RWD: Knl1^Spc105, S. cerevisiae S288c, residues 445-917; ZWINT^Kre28, S. cerevisiae S288c; no truncation stated; Dsn1^Δ1–226,S240E,S250E: Dsn1, S. cerevisiae S288c, residues 1-226 deleted, phosphomimetic mutations; Mis12^Mtw1, S. cerevisiae S288c; Nnf1, S. cerevisiae S288c; Nsl1, S. cerevisiae S288c; also called K^HB-RWDM^Dsn1Δ226,S240E,S250E; source: High-5 insect cells …
The description is as above. As to conditions: both partners purified.

For assay [10], the target named is T4, Knl1c:Mis12c^Mtw1c complex K^HB-RWDM^2E (full-length Dsn1 with S240E and S250E phosphomimetic mutations) (S. cerevisiae, UniProt P53148 445-917; Q04431 1-385; P40568 1-576; P39731 1-289; P47149 1-201; Q12143 …, S240E | S250E).
T4 construct: Knl1^Spc105_HB-RWD: Knl1^Spc105, S. cerevisiae S288c, residues 445-917; ZWINT^Kre28, S. cerevisiae S288c; no truncation stated; Dsn1^S240E,S250E: full-length Dsn1, S. cerevisiae S288c, with phosphomimetic mutations; Mis12^Mtw1, S. cerevisiae S288c; Nnf1, S. cerevisiae S288c; Nsl1, S. cerevisiae S288c; also called KM^2E; K^HB-RWDM^S240E,S250E; source: High-5 insect cells (baculovirus), purified …
The description is as above. Particulars: both partners purified.

We go through seven molecules from PMC13065467, “Assembly and phosphoregulatory mechanisms of the budding yeast outer kinetochore KMN complex” (The Journal of Cell Biology, 2026).

As a reminder, the Kd is a measure of binding affinity in units of concentration.

Turning to “K. lactis CENP-U^Ame1_1-25: residues 1–25 of K. lactis CENP-U^Ame1, reported by Dimitrova et al., 2016 (MDALKQRHLKLLYRQRGSASRTIDY; UniProt Q6CUE5 1-25, looked up, fragment)”, the Kd in assay [1] is 1480 nM. In addition, the “binding (fluorescence polarization)” value in [2] is listed as “did not interact”.

For “Ac-PHYIQRTRERKKEIGSQRGRRLEMLASGSAW-NH2 [Dsn1^228-254,S240E,S250E]”, in [3] (ratio of ITC KD values, S240E,S250E peptide versus wild-type Dsn1^228–254), the “decrease of affinity versus wild-type peptide” value is on record as “fivefold”. In addition, in [3] (read-out: KD (ITC) of phosphomimetic Dsn1 peptide, ITC, 25°C, 25 mM HEPES pH 7.5, 100 mM NaCl, 1 mM TCEP, syringe 0.35 mM, cell 0.025 mM, average from two experiments (technical repeats)), the Kd was found to be 6000 nM.

On to “CENP-C^Mif2_1-41: CENP-C^Mif2 peptide (residues 1-41) reported by Dimitrova et al., 2016 (MDYMKLGLKSRKTGIDVKQDIPKDEYSMENIDDFFKDDETS; UniProt P35201 1-41, looked up, fragment)”, for which the Kd in [1] was 1750 nM. In addition, the “binding (fluorescence polarization)” value in [2] is given as “no binding”.

Take “Ac-PHYIQRTRERKKSIGSQRGRRLSMLASGSAW-NH2 [Dsn1^228-254]”: the “binding (ITC)” value in [4] is “did not bind”. For the same molecule, the “increase of KD versus K^HB-RWDM^Dsn1Δ257” value in assay [5] is listed as “threefold”.

Turning to “CENP-U^Ame1_1–33 peptide (residues 1–33 of CENP-U^Ame1) D25A; V27A; I28A; F29A; T31A”, in assay [6], the other: N (ITC stoichiometry) worked out at 1.34.

Turning to Ac-PHYIQRTRERKKSIGSQRGRRLSMLASGSAW-NH2 [Dsn1^228–254 peptide], in [7], the Kd was 4060 nM.

B1: CENP-C^Mif2 residues 1–63 (CENP-C^Mif2_1–63) (domain or fragment, S. cerevisiae, UniProt P35201 1-63, looked up)
chain: MDYMKLGLKSRKTGIDVKQDIPKDEYSMENIDDFFKDDETSLISMRRKSRRKSSLFLPSTLNG
notes: CENP-C^Mif2, S. cerevisiae S288c, residues 1-63; source: E. coli BL-21 CodonPlus-RIL, purified (HisTrap, Ulp1 cleavage, reverse IMAC, Resource S, SEC); not shown: 6xHis-SUMO, N-terminal, cleaved
For B1, the binding result in assay [8], in [9] and in assay [10] was “binds” throughout.
